Measured values reported in PMC6369847 (International Journal of Nanomedicine, 2019).
Converted amounts (≈) assume the structure as drawn. Peptide text beside a SMILES is read from it. * marks the point of attachment. Stearoyl = CCCCCCCCCCCCCCCCCC(=O)*

What was measured:
MDA-MB-231 cells = assay: Cytotoxicity test by MTT assay, MDA-MB-231; format: cell-based; settings: Homo sapiens, MDA-MB-231, 48 h
[1] = In vivo pharmacokinetic studies of PTX; set-up: species or system Sprague Dawley rats
MDA-MB-231 tumors = assay: H&E staining and immunohistochemical analysis; format: in vivo, nude mice; settings: tumor sections at 14 days, n=5
[2] = Body weight of mice during the antitumor assay; format: in vivo; settings: tumor-bearing nude mice
[3] = Encapsulation efficiency and drug loading of micelles; format: physicochemical; settings: S-HM-3 concentration ranging from 0.1 to 0.7 mg/mL; data not shown
HUVECs = assay: Transwell cell migration assay; format: cell-based, Human; settings: 24 hours, Avstin 10 µg/mL, S-HM-3, TSm, HTSm 9 µg/mL, n=3
[4] = In vivo pharmacokinetic studies of S-HM-3; set-up: species or system Sprague Dawley rats; settings: rat, background statement of the abstract
[5] = In vivo distribution studies of S-HM-3; set-up: species or system nude mice; settings: MDA-MB-231 tumor-bearing mice, vein injection, free S-HM-3
[6] = male, Sprague Dawley, rat, plasma, iv, 7 mg/kg

Molecule	IC50 (MDA-MB-231 cells)	V1 of PTX ([1]; SD rats, i.v. single dose, 7 mg/kg PTX)	CL of PTX ([1]; SD rats, i.v. single dose, 7 mg/kg PTX, 7 mg/kg)	Vd [1, 6]	half-life [1, 6]	antiangiogenesis effect (CD31, microvessel density) (MDA-MB-231 tumors)	toxicity judged from body weight ([2]; regimen of Table 1)	weight loss of mice during the 0–10 days ([2]; regimen of Table 1)	encapsulation efficiency of S-HM-3 [3]	endothelial cell MI rate (migration inhibition rate) (HUVECs)	half-life [4]	time at which S-HM-3 in organs reached the peak [5]	time at which S-HM-3 was nearly cleared from organs [5]	apoptosis in tumor cells (positive p53 rate) (MDA-MB-231 tumors)	body weight of mice during the test period ([2]; regimen of Table 1, 14 days)
CC(=O)O[C@H]1C(=O)[C@@]2(C)[C@H]([C@H](OC(=O)c3ccccc3)[C@]3(O)C[C@H](OC(=O)[C@H](O)[C@@H](NC(=O)c4ccccc4)c4ccccc4)C(C)=C1C3(C)C)[C@]1(OC(C)=O)CO[C@@H]1C[C@@H]2O [PTX, Paclitaxel]	1.37 µg/mL (≈ 1.6 µM)	0.62 ± 0.08 L/kg	1.29 ± 0.17 L/h/kg	3.34 ± 0.5 L/kg	107 ± 7.8 min	almost the same antiangiogenesis effect	high toxicity	obvious							
CCCCCCCCCCCCCCCCCC(=O)N[C@H](C(=O)N[C@H](C(=O)N[C@@H](CCCNC(=N)N)C(=O)N[C@@H](CCCNC(=N)N)C(=O)N[C@@H](C)C(=O)N[C@@H](CC(=O)O)C(=O)N[C@@H](CCCNC(=N)N)C(=O)N[C@@H](C)C(=O)N[C@@H](C)C(=O)N[C@H](C(=O)N1CCC[C@H]1C(=O)NCC(=O)NCC(=O)NCC(=O)NCC(=O)N[C@@H](CCCNC(=N)N)C(=O)NCC(=O)N[C@@H](CC(=O)O)C(=O)O)C(C)C)C(C)C)[C@@H](C)CC [S-HM-3] (Stearoyl-IVRRADRAAVPGGGGRGD-OH; N-terminus and C-terminus assumed)						almost the same antiangiogenesis effect	very low toxicity or nontoxic		> 97%	60.55%	25 min	24 min	60 min	did not induce significant apoptosis	significantly increased
Avstin: positive control of the cell migration assay, 10 µg/mL										69.89%					
